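Exposure lasted 48 hours, with cells grown in 96-well plates and compounds tested at five concentrations. GI50: concentration for 50% inhibition of growth.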 Active and inactive are the calls of the source. Cut-off read from the data, not from the text of the source: active = GI50 up to about 1.1 µM and inactive = higher.
Key:
Assay in all cases: growth of human tumour cells (NCI), 48 h
SN12C = tested on: SN12C
PC-3 = tested on: PC-3
RPMI-8226 = tested on: RPMI-8226
HT-29 = tested on: HT-29
SNB-75 = tested on: SNB-75
UACC-257 = tested on: UACC-257
CCRF-CEM = tested on: CCRF-CEM
SK-OV-3 = tested on: SK-OV-3
Hs-578T = tested on: Hs-578T
HOP-62 = tested on: HOP-62
RXF 393 = tested on: RXF 393
U-251 = tested on: U-251
CAKI-1 = tested on: CAKI-1
SK-MEL-5 = tested on: SK-MEL-5
HCT-15 = tested on: HCT-15
EKVX = tested on: EKVX
Malme-3M = tested on: Malme-3M
NCI-H522 = tested on: NCI-H522
SNB-19 = tested on: SNB-19
HCC 2998 = tested on: HCC 2998

Structure (SMILES)	GI50 (SN12C)	GI50 (PC-3)	GI50 (RPMI-8226)	GI50 (HT-29)	GI50 (SNB-75)	GI50 (UACC-257)	GI50 (CCRF-CEM)	GI50 (SK-OV-3)	GI50 (Hs-578T)	GI50 (HOP-62)	GI50 (RXF 393)	GI50 (U-251)	GI50 (CAKI-1)	GI50 (SK-MEL-5)	GI50 (HCT-15) [µM]	GI50 (EKVX)	GI50 (Malme-3M)	GI50 (NCI-H522)	GI50 (SNB-19)	GI50 (HCC 2998)
Cc1c(CCCl)c(=O)n2c([nH]c3ccccc32)c1C#N	1.36 µM (inactive)	1.45 µM (inactive)	1.3 µM (inactive)	1.6 µM (inactive)	1.45 µM (inactive)	2.73 µM (inactive)	0.402 µM (active)	2.1 µM (inactive)	3.22 µM (inactive)	1.82 µM (inactive)	1.76 µM (inactive)	1.79 µM (inactive)	1.46 µM (inactive)	1.42 µM (inactive)	1.57	1.84 µM (inactive)	0.678 µM (active)			
CN(C)Cc1c[nH]c2ncnc(O)c12	34.2 µM (inactive)	56.2 µM (inactive)	20.6 µM (inactive)	28.2 µM (inactive)	33.3 µM (inactive)	23 µM (inactive)	19.2 µM (inactive)	> 100 µM (inactive)	> 100 µM (inactive)	> 100 µM (inactive)	18.6 µM (inactive)	51.6 µM (inactive)	19.8 µM (inactive)	53.7 µM (inactive)	35.5	98.2 µM (inactive)	77.1 µM (inactive)	> 100 µM (inactive)	70.1 µM (inactive)	
Clc1ccc2c(NCCNC3CCCCC3)ccnc2c1	16.2 µM (inactive)	12.9 µM (inactive)	3.44 µM (inactive)	3.15 µM (inactive)	4.63 µM (inactive)		2.81 µM (inactive)	13.9 µM (inactive)	2.54 µM (inactive)	11.9 µM (inactive)	8.95 µM (inactive)	5.5 µM (inactive)	5.41 µM (inactive)	1.62 µM (inactive)	5.4	3.31 µM (inactive)	1.87 µM (inactive)	2.67 µM (inactive)	15.9 µM (inactive)	
CN(C)/C=N/CCN1CCOCC1	> 100 µM (inactive)	> 100 µM (inactive)	> 100 µM (inactive)	> 100 µM (inactive)	97.7 µM (inactive)	> 100 µM (inactive)	> 100 µM (inactive)	> 100 µM (inactive)	> 100 µM (inactive)	> 100 µM (inactive)	> 100 µM (inactive)	> 100 µM (inactive)		> 100 µM (inactive)	> 100	> 100 µM (inactive)	> 100 µM (inactive)	> 100 µM (inactive)	> 100 µM (inactive)	
O=[As](O)(O)c1ccc(NCc2ccccc2)cc1	> 100 µM (inactive)	> 100 µM (inactive)	> 100 µM (inactive)	> 100 µM (inactive)	> 100 µM (inactive)	> 100 µM (inactive)			58.9 µM (inactive)	> 100 µM (inactive)	> 100 µM (inactive)	> 100 µM (inactive)	> 100 µM (inactive)	> 100 µM (inactive)	> 100	> 100 µM (inactive)	> 100 µM (inactive)	76.9 µM (inactive)	> 100 µM (inactive)	
O=C(Nc1ccccc1)c1cc(S(=O)(=O)Nc2n[nH]c(=O)[nH]2)c(SSc2cc(Cl)c(C(=O)Nc3ccccc3)cc2S(=O)(=O)Nc2n[nH]c(=O)[nH]2)cc1Cl	> 100 µM (inactive)	> 100 µM (inactive)	> 100 µM (inactive)	> 100 µM (inactive)	> 100 µM (inactive)	> 100 µM (inactive)	> 100 µM (inactive)	> 100 µM (inactive)	> 100 µM (inactive)	> 100 µM (inactive)		> 100 µM (inactive)	> 100 µM (inactive)	> 100 µM (inactive)	> 100	> 100 µM (inactive)	> 100 µM (inactive)	> 100 µM (inactive)	> 100 µM (inactive)	> 100 µM (inactive)
C1=N\c2ccc(cc2)/N=C\c2ccc(cc2)OCc2cccc(n2)COc2ccc/1cc2	> 100 µM (inactive)	> 100 µM (inactive)	> 100 µM (inactive)	> 100 µM (inactive)	> 100 µM (inactive)	> 100 µM (inactive)	> 100 µM (inactive)	> 100 µM (inactive)	> 100 µM (inactive)	> 100 µM (inactive)	> 100 µM (inactive)	> 100 µM (inactive)	> 100 µM (inactive)	> 100 µM (inactive)	> 100	> 100 µM (inactive)	> 100 µM (inactive)	> 100 µM (inactive)	> 100 µM (inactive)	
NC(CSC1c2ccccc2-c2ccccc21)C(=O)O (configuration not stated)	> 100 µM (inactive)	> 100 µM (inactive)	> 100 µM (inactive)	> 100 µM (inactive)	> 100 µM (inactive)	> 100 µM (inactive)	> 100 µM (inactive)	> 100 µM (inactive)	23.9 µM (inactive)	> 100 µM (inactive)	> 100 µM (inactive)	> 100 µM (inactive)	> 100 µM (inactive)	> 100 µM (inactive)	> 100	> 100 µM (inactive)	> 100 µM (inactive)		> 100 µM (inactive)	
O=C(Cc1nc2ccc(C(=O)c3ccccc3)cc2nc1O)C(=O)Nc1ccc(Br)cc1	> 100 µM (inactive)	88.1 µM (inactive)	99.3 µM (inactive)	> 100 µM (inactive)	38 µM (inactive)	> 100 µM (inactive)		> 100 µM (inactive)	53 µM (inactive)	> 100 µM (inactive)	> 100 µM (inactive)	> 100 µM (inactive)	40.1 µM (inactive)	> 100 µM (inactive)	54.3	> 100 µM (inactive)	> 100 µM (inactive)	48.9 µM (inactive)		
O=C1c2c(O)cccc2C(C(=O)CCCC(=O)C2c3cccc(O)c3C(=O)c3c(O)cccc32)c2cccc(O)c21	0.643 µM (active)	0.0787 µM (active)	0.0679 µM (active)	0.746 µM (active)	0.448 µM (active)	0.191 µM (active)	0.202 µM (active)	0.353 µM (active)	0.0665 µM (active)	0.612 µM (active)		0.212 µM (active)	1.27 µM (inactive)	0.259 µM (active)	0.259	0.608 µM (active)	0.789 µM (active)	0.158 µM (active)	0.29 µM (active)	0.278 µM (active)
CC1=C/C(=N\OCC(=O)O)CC(c2ccc(C(C)C)cc2)C1 (configuration not stated)	60.1 µM (inactive)	38.5 µM (inactive)	23.2 µM (inactive)	16.6 µM (inactive)		43 µM (inactive)	34.4 µM (inactive)	> 100 µM (inactive)	> 100 µM (inactive)		> 100 µM (inactive)	63.8 µM (inactive)	> 100 µM (inactive)	17.5 µM (inactive)	23.2	> 100 µM (inactive)	63.8 µM (inactive)	23.2 µM (inactive)		
